≈ marks a conversion by molar mass, not a printed value. Where “and” joins values, the source holds several entries; their conditions need not be identical. Equal values may be shown once.
Legend:
Assay type in all cases: cell-based
[1] = tested on: HL-60 cells; assay: Cellular differentiation of HL-60, escape velocity
Text: HL-60 is a promyelocytic leukemia cell line that retains the capacity to undergo terminal differentiation and serves as a model system to study myeloid pathways of cellular differentiation. It is known that treatment of HL-60 cells with phorbol 12-myristate 13-acetate (PMA) causes the cells to differentiate into monocytes/macrophages. In addition, it is also known that treatment of HL-60 cells with dimethylsulfoxide (DMSO) causes these same cells to undergo granulocytic differentiation.
Initial tests were performed using HL-60 cells treated with PMA. HL-60 cells were seeded at about 1-3×10^6 cells per well in six well plates. The cells were treated with 200 ng/ml PMA while the control cells were treated with ethanol (EtOH) vehicle for four hours at 37° C. After incubation for four hours the treated cells were washed with PBS and re-fed with growth media. The treated HL-60 cells were then allowed to differentiate for 72 hours in normal growth media. After the 72 hour period, the untreated control cells were collected by centrifugation, washed with PBS and pelleted for resuspension at 1.5×10^6 cells/ml in PBS/1% BSA. Treated cells were trypsinized and collected by centrifugation then washed in PBS and pelleted for resuspension at 1×10^6 cells/ml in PBS/1% BSA. The cells were the subjected to Optophoretic analysis by measuring the escape velocities of the treated and control cells. Table 23 shown below illustrates the measured escape velocities of the undifferentiated and differentiated cells at 72 hours post treatment.

[2] = tested on: CD11b expression in HL-60 cells; assay: FACS CD11b expression profile; conditions: 400 ng/ml PMA
Method: Fast scan analysis was also performed on HL-60 cells that were treated with PMA and DMSO. A time course evaluation of PMA treated HL-60 cells was performed with fast scan data taken at 16 hours, 24 hours, 40 hours, and 72 hours post-treatment with 400 ng/ml PMA. A control sample of HL-60 cells was also tested using EtOH as the vehicle for purposes of comparing the differentiated cells with the undifferentiated HL-60 cells. The PMA-treated and control cells were harvested and trypsinized. The samples were then resuspended in PBS/1% BSA. A set of samples was also obtained and left as pellets at 4° C. for subsequent FACS analysis.
FIG. 145 illustrates a histogram of the travel distance of the control cells as well as the PMA-treated cells at 16 hours, 24 hours, 40 hours, and 72 hours post-treatment. FIG. 146 illustrates the mean travel distances of the control cells as well as the PMA-treated cells at 16 hours, 24 hours, 40 hours, and 72 hours post-treatment. FIG. 147 illustrates the FACS CD11b expression profile in PMA-treated HL-60 cells as well as the control. CD11b is a known marker of cellular differentiation and is expressed on the surface of differentiating cells. […] The data illustrate that Optophoretic analysis can be used as an assay for the detection and quantification of cellular differentiation. […]

[3] = tested on: U937 cells; assay: Experiment 2: time and concentration dependence of PMA, escape velocity; parameters: escape velocity, Ave.: unit not given here
Method: This experiment was conducted to test the effect of PMA concentration on the escape velocity of U937 cells. PMA concentrations of 10 ng/ml, 1 ng/ml, 100 pg/ml, 10 pg/ml and 1 pg/ml were tested. The control sample received EtOH and not PMA.
The PMA concentration was tested at three timepoints: 1 hour, 3 hours and 5 hours. At each timepoint, 300 μl of cells were removed from each flask. The cells were then spun for 5 minutes at 5000 rpm. The cells were then resuspended in […] PBS/1% BSA and […] of trypan blue.

[4] = tested on: U937 cells; assay: Experiment 13: quantitative determination of PKC activation, escape velocity dose response; conditions: for escape velocity, Average: five hours
Method: Optophoretic analysis was used to develop a full dose response curve for U937 cells treated with PMA. U937 cells were incubated with varying amounts of PMA dissolved in DMSO. The following concentrations of PMA were tested: 0.156 ng/ml, 0.312 ng/ml, 0.625 ng/ml, 1.25 ng/ml, 2.5 ng/ml, 5 ng/ml, and no PMA (control). The cells were incubated with the PMA solutions (or simply DMSO in the case of the control) for five hours. At the end of the incubation period, the cells were centrifuged down for five minutes at 5000 rpm. The supernatent was then removed and the pellet resuspended in 1 ml PBS/1% BSA buffer plus 1:10 trypan blue. The cells were then loaded onto a cover slip containing agarose that was spin-coated onto the surface thereof. Escape velocity measurements were then taken using a 100 mW laser having a beam diameter of 28 pixels. Table 9 reproduced below sets forth the measured escape velocities (μm/sec) for each of the various PMA concentrations.
The method described above may be used to quantitatively determine the level of PKC activation in cells in response to exposure to PKC activating compound using a moving optical gradient. The method includes the steps of first providing a series of cell samples and exposing the series of cell samples to different concentrations of the PKC activating compound. After a period of incubation from about one to several hours, the cells and the optical gradient are moved relative to each other so as to cause displacement of at least some of the cells. Next, the displacement of at least a portion of the displaced cells is measured for each of the different concentrations. […] From the dose response curve, one is able to calculate one or more numerical values that correlate to PKC potency and/or efficacy. For example, the dose response curve can be used to calculate the EC50, Hill slope, or plateau value relative to a standard compound.

## CCCCCCCCCCCCCC(=O)O[C@@H]1[C@@H](C)[C@@]2(O)[C@@H](C=C(CO)C[C@]3(O)C(=O)C(C)=C[C@@H]23)[C@@H]2C(C)(C)[C@]12OC(C)=O [PMA, phorbol 12 myristate 13-acetate]
[1]; HL-60 + PMA at 72 hours (differentiated), 200 ng/ml PMA for four hours
  escape velocity, Average: 14.0 μm/sec
[1]; HL-60 + PMA at 72 hours (differentiated), 200 ng/ml PMA for four hours, Cell No. 1 to 20
  Escape Velocity, individual cell: 14.0 μm/sec (3×) and 12.5 μm/sec (3×) and 16.5 μm/sec and 14.5 μm/sec (3×) and 13.0 μm/sec (2×) and 13.5 μm/sec (2×) and 15.5 μm/sec (2×) and 15.0 μm/sec (2×) and 16.0 μm/sec and 11.0 μm/sec
[1]; HL-60 + PMA at 72 hours, on average
  increase in measured escape velocity as compared to the control cells: about 2 μm/sec
[2]
  time after treatment at which a noticeable change in CD11b expression levels was observed: about 40 hours
[3]; 10 pg/ml PMA, 1 Hour Activation
  escape velocity, Ave.: 14.4
[3]; 10 pg/ml PMA, 3 Hour Activation
  escape velocity, Ave.: 14.5
[3]; 10 pg/ml PMA, 5 Hour Activation
  escape velocity, Ave.: 14.1
[3]; 100 pg/ml PMA, 1 Hour Activation
  escape velocity, Ave.: 14.4
[3]; 100 pg/ml PMA, 3 Hour Activation
  escape velocity, Ave.: 15.5
[3]; 100 pg/ml PMA, 5 Hour Activation
  escape velocity, Ave.: 16.1
[3]; 1 ng/ml PMA, 1 Hour Activation
  escape velocity, Ave.: 14.3
[3]; 1 ng/ml PMA, 3 Hour Activation
  escape velocity, Ave.: 15.1
[3]; 1 ng/ml PMA, 5 Hour Activation
  escape velocity, Ave.: 16.5
[3]; 10 ng/ml PMA, 1 Hour Activation
  escape velocity, Ave.: 14.8
[3]; 10 ng/ml PMA, 3 Hour Activation
  escape velocity, Ave.: 15.2
[3]; 10 ng/ml PMA, 5 Hour Activation
  escape velocity, Ave.: 16.2
[3]; two lowest concentrations, 10 pg/ml and 1 pg/ml PMA
  Optophoretic difference versus control: showed no Optophoretic difference
[4]; 1.25 ng/ml PMA
  escape velocity, Average: 17.0 μm/sec
[4]; 2.5 ng/ml PMA
  escape velocity, Average: 17.0 μm/sec
[4]; 5 ng/ml PMA
  escape velocity, Average: 17.3 μm/sec
[4]; .156 ng/ml PMA
  escape velocity, Average: 15.8 μm/sec
[4]; .312 ng/ml PMA
  escape velocity, Average: 16.0 μm/sec
[4]; .625 ng/ml PMA
  escape velocity, Average: 16.6 μm/sec
[4]; Homo sapiens, U-937, 5 h, U937 cells, five hours (FIG. 53), read-out: EC50 value of the PMA dose response curve (escape velocity)
  EC50: ~0.625 ng/mL (≈ 1.01 nM)
